Among the data in the supplement of paper PMC10307832 are relative viability values, retold here.

What all share (experiment): relative viability (nuclei count vs DMSO), 5 days (fraction); higher = more cells survive
Compound in the assay “Imatinib + Palbociclib”: Cc1ccc(NC(=O)c2ccc(CN3CCN(C)CC3)cc2)cc1Nc1nccc(-c2cccnc2)n1 [Imatinib] + CC(=O)c1c(C)c2cnc(Nc3ccc(N4CCNCC4)cn3)nc2n(C2CCCC2)c1=O [Palbociclib] (partner 0.5 µM)
The method in brief:
(§1)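 The day after seeding in 1536-well plates, lung cancer cell lines were treated by pin tool with a single drug, or with a fixed anchor-drug dose together with five library-drug doses (not always all listed) in √10 steps. After 5 days, a combined fix-and-stain solution (final 0.05% Triton X-100, 1% formaldehyde, 1 ug/ml Hoechst) was added. Nuclei counted on 4× images gave relative viability as treated counts over vehicle counts, reported as the median of duplicate plates.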

Compound in the assay “Imatinib + Navitoclax”: Cc1ccc(NC(=O)c2ccc(CN3CCN(C)CC3)cc2)cc1Nc1nccc(-c2cccnc2)n1 [Imatinib] + CC1(C)CCC(c2ccc(Cl)cc2)=C(CN2CCN(c3ccc(C(=O)NS(=O)(=O)c4ccc(N[C@H](CCN5CCOCC5)CSc5ccccc5)c(S(=O)(=O)C(F)(F)F)c4)cc3)CC2)C1 [Navitoclax] (partner 0.5 µM)
An outline of the steps:
as §1

Compound in the assay “Imatinib + Linsitinib”: Cc1ccc(NC(=O)c2ccc(CN3CCN(C)CC3)cc2)cc1Nc1nccc(-c2cccnc2)n1 [Imatinib] + C[C@]1(O)C[C@@H](c2nc(-c3ccc4ccc(-c5ccccc5)nc4c3)c3c(N)nccn32)C1 [Linsitinib] (partner 1 µM)
The method in brief: as §1

Compound in the assay “Imatinib + Tozasertib”: Cc1ccc(NC(=O)c2ccc(CN3CCN(C)CC3)cc2)cc1Nc1nccc(-c2cccnc2)n1 [Imatinib] + Cc1cc(Nc2cc(N3CCN(C)CC3)nc(Sc3ccc(NC(=O)C4CC4)cc3)n2)n[nH]1 [Tozasertib] (partner 0.1 µM)
The method in brief: as §1

For the cell line NCI-H2347, the relative viability with Imatinib + Palbociclib (first compound 0.02 µM) is 0.498; with Imatinib + Palbociclib (first compound 0.2 µM), 0.425; in the assay with Imatinib + Palbociclib (first compound 0.6325 µM) it was 0.424; with Imatinib + Palbociclib (first compound 2 µM), 0.405; with Imatinib + Navitoclax (first compound 0.02 µM), 0.792; with Imatinib + Navitoclax (first compound 0.06325 µM), 0.675. The relative viability with Imatinib + Navitoclax (first compound 0.2 µM) is 0.688; with Imatinib + Navitoclax (first compound 0.6325 µM) it was 0.823; with Imatinib + Navitoclax (first compound 2 µM) it was 0.859; in the assay with Imatinib + Linsitinib (first compound 0.02 µM), 0.943; with Imatinib + Linsitinib (first compound 0.06325 µM) it was 0.839; with Imatinib + Linsitinib (first compound 0.2 µM), 0.965. The relative viability with Imatinib + Linsitinib (first compound 2 µM) came to 0.978; with Imatinib + Tozasertib (first compound 0.06325 µM), 0.521; with Imatinib + Tozasertib (first compound 0.2 µM) it was 0.499; in the assay with Imatinib + Tozasertib (first compound 0.6325 µM) it was 0.446; with Imatinib + Tozasertib (first compound 2 µM), 0.407.

NCI-H2405: the relative viability was 0.534 with Imatinib + Palbociclib (first compound 0.02 µM); 0.57 in the assay with Imatinib + Palbociclib (first compound 0.06325 µM); 0.533 in the assay with Imatinib + Palbociclib (first compound 0.2 µM); 0.493 with Imatinib + Palbociclib (first compound 0.6325 µM); 0.572 in the assay with Imatinib + Palbociclib (first compound 2 µM); 0.984 with Imatinib + Navitoclax (first compound 0.02 µM). In addition, the relative viability with Imatinib + Navitoclax (first compound 0.2 µM) came to 0.845; with Imatinib + Navitoclax (first compound 0.6325 µM), 0.706; with Imatinib + Linsitinib (first compound 0.02 µM), 1.05; with Imatinib + Linsitinib (first compound 0.2 µM), 0.869; in the assay with Imatinib + Linsitinib (first compound 0.6325 µM) it was 0.762; with Imatinib + Linsitinib (first compound 2 µM), 0.956. Moreover, the relative viability was found to be 0.7 with Imatinib + Tozasertib (first compound 0.02 µM), 0.767 in the assay with Imatinib + Tozasertib (first compound 0.2 µM), 0.671 with Imatinib + Tozasertib (first compound 0.6325 µM) and 0.609 with Imatinib + Tozasertib (first compound 2 µM).

As for NCI-H3122, the relative viability with Imatinib + Palbociclib (first compound 0.02 µM) was 0.194; in the assay with Imatinib + Palbociclib (first compound 0.06325 µM), 0.19; with Imatinib + Palbociclib (first compound 0.2 µM), 0.199; with Imatinib + Palbociclib (first compound 0.6325 µM), 0.192; with Imatinib + Palbociclib (first compound 2 µM), 0.205; with Imatinib + Navitoclax (first compound 0.06325 µM), 1.11. Moreover, the relative viability in the assay with Imatinib + Navitoclax (first compound 0.2 µM) worked out at 1.08; in the assay with Imatinib + Navitoclax (first compound 0.6325 µM), 1.06; with Imatinib + Navitoclax (first compound 2 µM), 1.01; in the assay with Imatinib + Linsitinib (first compound 0.02 µM), 1; with Imatinib + Linsitinib (first compound 0.06325 µM), 1.13; with Imatinib + Linsitinib (first compound 0.2 µM), 1.14. Further, the relative viability with Imatinib + Linsitinib (first compound 0.6325 µM) came out at 1.03; in the assay with Imatinib + Linsitinib (first compound 2 µM), 1.04; with Imatinib + Tozasertib (first compound 0.02 µM) it was 0.376; with Imatinib + Tozasertib (first compound 0.06325 µM), 0.373; with Imatinib + Tozasertib (first compound 0.2 µM), 0.514; with Imatinib + Tozasertib (first compound 2 µM), 0.383.

For PC-3 [JPC-3], the relative viability with Imatinib + Palbociclib (first compound 0.02 µM) came to 0.581; with Imatinib + Palbociclib (first compound 0.6325 µM) it was 0.763; with Imatinib + Palbociclib (first compound 2 µM) it was 0.539; with Imatinib + Navitoclax (first compound 0.02 µM) it was 0.84; in the assay with Imatinib + Navitoclax (first compound 0.2 µM) it was 0.789; with Imatinib + Navitoclax (first compound 0.6325 µM), 0.811. Further, the relative viability worked out at 0.687 in the assay with Imatinib + Navitoclax (first compound 2 µM); 1.05 with Imatinib + Linsitinib (first compound 0.2 µM); 1.04 with Imatinib + Linsitinib (first compound 0.6325 µM); 0.911 in the assay with Imatinib + Tozasertib (first compound 0.02 µM); 0.855 in the assay with Imatinib + Tozasertib (first compound 0.2 µM); 0.879 with Imatinib + Tozasertib (first compound 0.6325 µM). Moreover, the relative viability with Imatinib + Tozasertib (first compound 2 µM) was 0.789.

As for PC-14, the relative viability in the assay with Imatinib + Palbociclib (first compound 0.02 µM) worked out at 0.655; with Imatinib + Palbociclib (first compound 0.06325 µM) it was 0.633; in the assay with Imatinib + Palbociclib (first compound 0.2 µM), 0.558; in the assay with Imatinib + Palbociclib (first compound 0.6325 µM) it was 0.524; with Imatinib + Palbociclib (first compound 2 µM), 0.542; with Imatinib + Navitoclax (first compound 0.02 µM), 1.14. In addition, the relative viability worked out at 0.988 in the assay with Imatinib + Navitoclax (first compound 0.06325 µM); 1.12 with Imatinib + Navitoclax (first compound 0.2 µM); 1.06 with Imatinib + Navitoclax (first compound 0.6325 µM); 0.96 with Imatinib + Navitoclax (first compound 2 µM); 0.97 with Imatinib + Linsitinib (first compound 0.06325 µM); 1.06 with Imatinib + Linsitinib (first compound 0.2 µM). For the same cell line, the relative viability with Imatinib + Linsitinib (first compound 0.6325 µM) was 0.984; with Imatinib + Linsitinib (first compound 2 µM) it was 1.01; with Imatinib + Tozasertib (first compound 0.02 µM) it was 0.665; with Imatinib + Tozasertib (first compound 0.2 µM) it was 0.592; in the assay with Imatinib + Tozasertib (first compound 0.6325 µM) it was 0.591; with Imatinib + Tozasertib (first compound 2 µM), 0.516.
